“Also recorded” adds a separate entry of the source.
Columns and labels:
[1] = system: Ehrlich Ascites Carcinoma (EAC); test: Anti tumor activity on Ehrlich Ascites Carcinoma (EAC) bearing mice; format: in vivo; conditions: for % Tumor growth inhibition / Ascitic fluid volume (ml) Mean ± SE / Tumor cells in ascitic fluid (×10^7) Mean ± SE: day 12; for mortality of test animals: EAC bearing mice
Description: (§1) Non-inbred swiss albino mice from an in-house colony were used in the present study. The breeding and experimental animals were housed in standard size polycarbonate cages providing internationally recommended space for each animal. Animals were fed balanced mice feed supplied by MIs Ashirwad Industries, Chandigarh (India) and autoclaved water was available ad libitum. Animals were cared as per the guide for the care and use of laboratory animals (1996), ILAR, Washington D.C. They were housed in controlled conditions of temperature (23±2° C.), humidity (50-60%) and 12:12 hrs of light: dark cycle. The study and the number of animals used were approved by the institutional animal ethics committee, IIIM, Jammu, India. The study was conducted as per the protocols of National Cancer Institute (NCl), USA (Geran et al., 1972).
Ehrlich Ascites Carcinoma (EAC) was propagated by transplanting 1×10^7 cells from an animal bearing 8-10 days old Ehrlich Ascites Carcinoma, into the peritoneal cavity of non-inbreed swiss mice. For testing, mice of the same sex weighing 20 ±3 g bearing ascites tumor were selected. 1×10^7 cells obtained from an animal bearing 8-10 days old ascites tumor were injected into peritoneal cavity of all animals used for testing (0 Day). On next day animals were randomized and divided into test groups (7 animals in each test group) and one tumor control group (10 animals). Test groups were treated with different doses of Parthenin (10 mg/kg, 25 mg/kg and 50 mg/kg) and its derivative Compound-17 (10 mg/kg, 25 mg/kg and 50 mg/kg, 100 mg/kg and 200 mg/kg) suspension in 1% gum acacia in their respective group intraperitonealy for nine consecutive days. Another test group was administered 5 FU @ 20 mg/kg i.p and served as positive control. The tumor control group was similarly administered normal saline (0.2 ml i.p). The percent tumor growth inhibition were measured on day 12 with respect to volume of ascitic fluid and the number of tumor cells in the ascitic fluid of peritoneal cavity (Geran et al., 1972; Singh et al., 2007).
The percent tumor growth inhibition was calculated as follow. % growth inhibition=100×(Average no. of cells in control group−Average no. of cells in test group)/Average no. of cells in control group Results: […]

[2] = system: Ehrlich Ascites Tumor (EAT); test: Anti tumor activity on solid Ehrlich Ascites Tumor (EAT) bearing mice; format: in vivo; conditions: for % Tumor growth inhibition / Tumor Weight (mg) Mean ± SE: day 13; for mortality of test animals: EAT bearing mice
Description: as §1
Parthenin and its derivative Compound-17 were evaluated against solid Ehrlich Ascites Tumor (EAT) models at different doses. A standard procedure for experiment was as followed:
Animals of the same sex weighing 20±3 g were injected 1×10^7 cells collected from the peritoneal cavity of non-inbred swiss mice, bearing 8-10 days old tumor cells, into the right thigh, intramuscularly (on Day 1). On next day animals were randomized and divided into test groups (7 animals in each test group) and one tumor control group (10 animals). Test groups were treated with different doses of Parthenin (10 mg/kg, 25 mg/kg and 50 mg/kg) and its derivative Compound-17 (10 mg/kg, 25 mg/kg and 50 mg/kg, 100 mg/kg and 200 mg/kg) suspension in 1% gum acacia in, their respective group intraperitonealy for nine consecutive days. Another test group was administered 5-FU @ 22 mg/kg i.p and served as positive control. The tumor contra group was similarly administered normal saline (0.2 ml i.p). The percent tumor growth-inhibition was measured on day 13 with respect to their tumor weight (Geran et al., 1972): Shortest and longest diameters of the tumor mass were measured with the help of vernier caliper and tumor weight (mg) was calculated by using following formula Tumor weight (mg)=Length (mm)×(Width (mm)^2/2 The average tumor weight for each group was calculated and the percent tumor growth inhibition in treated groups was calculated as follows: % Tumor Growth Inhibition=100×(Average tumor weight of control group−Average tumor weight of test group)/Average tumor weight of control group Anti Tumor Activity of Parthenin and its Derivative Compound-17 on Ehrlich Ascites Carcinoma (EAC)

DU-145 = test: In vitro cytotoxicity screening (sulphodamine B dye), DU-145; format: cell-based; conditions: Homo sapiens; DU-145 prostate cancer cell line
Description: (§2) Cells at sub confluent stage were harvested from the flask by treatment with trypsin (0.5% in PBS containing 0.02% EDTA) for determination of cytotoxicity. […] The cell suspensions of required cell density were prepared in complete growth medium with gentamycin (50 μg/ml) for determination of cytotoxicity. The cells (100 μl/well) were inoculated in 96 well tissue culture plates. The cells were allowed to grow for 24 hrs temperature of 37° C. and in a humidified atmosphere of 5% CO2 in air. Stock solution of (20 mM) of test material was prepared in DMSO. The stock solution was serially diluted with complete growth medium containing 50 μg/ml of gentamycin to obtain […] working test solutions of 1., 2, 5, 10, 50 and 100 μM.
(§3) The media were supplemented with FCS (10%), penicillin (100 Units/ml), streptomycin (100 μg/ml) and glutamine (2 mM) and cells were grown in CO2 incubator (Hera cell, Heraeus, USA) at 37° C. with 90% humidity and 5% CO2.

PC-3 = test: In vitro cytotoxicity screening (sulphodamine B dye), PC-3; format: cell-based; conditions: Homo sapiens; PC-3 prostate cancer cell line
Description: as §2, §3

SW-620 = test: In vitro cytotoxicity screening (sulphodamine B dye), SW-620; format: cell-based; conditions: Homo sapiens; SW-620 colon cancer cell line
Description: as §2, §3

Structure (SMILES) | % Tumor growth inhibition ([1]; 20 mg/kg i.p.) | Ascitic fluid volume (ml) Mean ± SE ([1]; 20 mg/kg i.p.) | Tumor cells in ascitic fluid (×10^7) Mean ± SE ([1]; 20 mg/kg i.p.) | % Tumor growth inhibition ([2]; 22 mg/kg i.p.) | Tumor Weight (mg) Mean ± SE ([2]; 22 mg/kg i.p.) | IC50 (DU-145) | % Tumor growth inhibition ([1]; 10 mg/kg i.p., nine days) | Ascitic fluid volume (ml) Mean ± SE ([1]; 10 mg/kg i.p., nine days) | Tumor cells in ascitic fluid (×10^7) Mean ± SE ([1]; 10 mg/kg i.p., nine days) | mortality of test animals ([1]; 25 mg/kg i.p.) | mortality of test animals ([1]; 50 mg/kg i.p.) | IC50 (PC-3) | IC50 (SW-620) | % Tumor growth inhibition ([2]; 10 mg/kg i.p., nine days) | Tumor Weight (mg) Mean ± SE ([2]; 10 mg/kg i.p., nine days) | mortality of test animals ([2]; 25 mg/kg i.p.) | mortality of test animals ([2]; 50 mg/kg i.p.)
O=c1[nH]cc(F)c(=O)[nH]1 [Compound 5-FU, 5-Fluorouracil, reference compound] | 100% | 0 mL | 0 ×10^7 | 51.28% | 832.28 ± 35.21 mg |  |  |  |  |  |  |  |  |  |  |  | 
C=C1C(=O)O[C@@H]2[C@H]1CC[C@H](C)[C@]1(O)C=CC(=O)[C@@]21C [Parthenin] |  |  |  |  |  | 31.1 µM | 12.01% | 3.92 ± 0.38 mL | 74.71 ± 2.77 ×10^7 | mortality of all the test animals; also recorded: All animals died by 4th day | mortality of all the test animals; also recorded: All animals died by 2nd day | 40.3 µM | 38.7 µM | 9.69% | 1542.86 ± 35.24 mg | mortality of all the animals; also recorded: All animals died by 4th day | mortality of all the animals; also recorded: All animals died by 2nd day
